Measurements as given in publication PMC9904262, “Omics analysis of Mycobacterium tuberculosis isolates uncovers Rv3094c, an ethionamide metabolism-associated gene” (Communications Biology, 2023).

What was measured:
Rv3094c [1] = target: T1, Rv3094c (Mycobacterium tuberculosis, UniProt O05773)
Rv3094c [2] = target: T1, Rv3094c; remark: listed apart in the source
EthA = target: T2, EthA (Mycobacterium tuberculosis, UniProt P9WNF9); assay type: cell-based; settings: ethionamide 80 µg/ml (Methods), 37 °C, up to 6 h
T2 construct: N-terminal 6xHis tag kept (pET28a), expressed in intact E. coli BL21(DE3); not purified
T2 sequence (P9WNF9 whole entry): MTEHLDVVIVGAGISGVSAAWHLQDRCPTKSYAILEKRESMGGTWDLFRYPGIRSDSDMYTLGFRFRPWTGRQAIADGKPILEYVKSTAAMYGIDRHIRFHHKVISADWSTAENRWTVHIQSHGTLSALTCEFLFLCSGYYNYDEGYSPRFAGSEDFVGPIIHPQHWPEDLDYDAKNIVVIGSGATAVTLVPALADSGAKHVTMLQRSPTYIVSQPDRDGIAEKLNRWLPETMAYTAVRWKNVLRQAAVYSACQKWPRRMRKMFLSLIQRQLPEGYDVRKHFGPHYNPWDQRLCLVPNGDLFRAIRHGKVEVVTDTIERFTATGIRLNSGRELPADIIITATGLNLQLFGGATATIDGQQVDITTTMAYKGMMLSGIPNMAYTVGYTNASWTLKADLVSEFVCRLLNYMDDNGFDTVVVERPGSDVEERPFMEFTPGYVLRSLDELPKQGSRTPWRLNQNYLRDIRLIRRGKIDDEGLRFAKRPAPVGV

[3] = target: the molecule itself; assay: crystal structure; crystals of apo-Rv3094c, Rv3094c-FMN and Rv3094c-FMN-ETH; 0.2 M sodium nitrate, 0.1 M Bis Tris propane pH 8.5, 20% PEG3350, 16 °C; multimeric state analysed with PDBePISA

T1 sequence (O05773 entry or part of it): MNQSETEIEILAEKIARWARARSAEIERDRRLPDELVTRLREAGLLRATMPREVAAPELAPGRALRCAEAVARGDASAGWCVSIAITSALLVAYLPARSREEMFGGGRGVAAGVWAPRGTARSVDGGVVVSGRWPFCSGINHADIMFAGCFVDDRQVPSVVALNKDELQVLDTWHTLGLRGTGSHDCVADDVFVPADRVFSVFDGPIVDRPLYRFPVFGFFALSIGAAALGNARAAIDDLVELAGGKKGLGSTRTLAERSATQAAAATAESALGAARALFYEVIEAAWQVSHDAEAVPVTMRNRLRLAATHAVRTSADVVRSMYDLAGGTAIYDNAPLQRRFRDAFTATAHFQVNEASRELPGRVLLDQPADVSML

For `Cc1cc2nc3c(=O)[nH]c(=O)nc-3n(C[C@H](O)[C@H](O)[C@H](O)COP(=O)(O)O)c2cc1C` [flavin mononucleotide], which X-ray crystallography (Rv3094c [1]) is on record?
The X-ray crystallography was “Rv3094c in complex with FMN (Rv3094c-FMN; Supplementary Fig. 4b)”.

For `CCc1cc(C(N)=S)ccn1` [ethionamide], which X-ray crystallography (Rv3094c [1]) is on record?
Its X-ray crystallography is “in complex with FMN (Rv3094c-FMN; Supplementary Fig. 4b) and ethionamide (Rv3094c-FMN-ETH”.

And the “HPLC-UV of E. coli culture supernatant, LC-MS/MS” value (“HPLC-UV” for short) (Rv3094c [2])?
The value was “Rv3094c must be a monooxygenase that can directly sulfoxidise ethionamide, forming ETH-SO”.

And the “HPLC-UV” value (EthA)?
Its value is “in supernatants from Rv3094c and ethA overexpression strains declined over time”.

With `CCc1cc(C(N)=S=O)ccn1` [ETH-SO] as the molecule, how does the “HPLC-UV” value (Rv3094c [2]) read?
Its value is “We synthesized an ETH-SO standard, and confirmed the new peak to be ETH-SO”.

And the “HPLC-UV” value (EthA)?
Its value is “We synthesized an ETH-SO standard, and confirmed the new peak to be ETH-SO”.

B1: Rv3094c (enzyme)
chain: NQSETEIEILAEKIARWARARSAEIERDRRLPDELVTRLREAGLLRATMPREVAAPELAPGRALRCAEAVARGDASAGWCVSIAITSALLVAYLPARSREEMFGGGRGVAAGVWAPRGTARSVDGGVVVSGRWPFCSGINHADIMFAGCFVDDRQVPSVVALNKDELQVLDTWHTLGLRGTGSHDCVADDVFVPADRVFSVFDGPIVDRPLYRFPVFGFFALSIGAAALGNARAAIDDLVELAGGKKGLGSTRTLAERSATQAAAATAESALGAARALFYEVIEAAWQVSHDAEAVPVTMRNRLRLAATHAVRTSADVVRSMYDLAGGTAIYDNAPLQRRFRDAFTATAHFQVNEASRELPGRVLLDQPADVSML
notes: also called apo-Rv3094c; Rv3094c-FMN
How did the “stoichiometry N” value [3] turn out when B1 was run?
The value was 4.
